Experiment [1] deals with T1, Polyunsaturated fatty acid 5-lipoxygenase (Homo sapiens, UniProt P09917).
T1 sequence (P09917 whole entry): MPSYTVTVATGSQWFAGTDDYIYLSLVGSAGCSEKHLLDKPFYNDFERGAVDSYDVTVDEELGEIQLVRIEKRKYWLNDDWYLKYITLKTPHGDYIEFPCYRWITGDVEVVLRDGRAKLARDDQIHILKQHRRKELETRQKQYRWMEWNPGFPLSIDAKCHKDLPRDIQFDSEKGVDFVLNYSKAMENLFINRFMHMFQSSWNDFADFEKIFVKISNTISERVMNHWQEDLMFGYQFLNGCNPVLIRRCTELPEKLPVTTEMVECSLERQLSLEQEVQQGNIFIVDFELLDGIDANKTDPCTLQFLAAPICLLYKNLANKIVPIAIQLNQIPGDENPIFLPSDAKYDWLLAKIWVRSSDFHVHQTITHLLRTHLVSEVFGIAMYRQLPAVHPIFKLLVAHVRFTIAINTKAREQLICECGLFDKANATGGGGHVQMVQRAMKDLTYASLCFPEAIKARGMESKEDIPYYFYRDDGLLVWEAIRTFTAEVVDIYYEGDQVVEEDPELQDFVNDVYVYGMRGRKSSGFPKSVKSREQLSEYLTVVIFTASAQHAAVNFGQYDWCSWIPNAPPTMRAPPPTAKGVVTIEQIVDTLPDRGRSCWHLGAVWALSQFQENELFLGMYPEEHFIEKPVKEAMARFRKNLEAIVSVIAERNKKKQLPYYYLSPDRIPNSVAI
Kind of experiment: Inhibition of 5-LO in human polymorphonuclear leukocytes assessed as inhibition of LTB4 production from arachidonic acid preincubated for 15 mins by HPLC analysis. In kind it is cell-based.

Experiment [2] addresses T1, Polyunsaturated fatty acid 5-lipoxygenase. Briefly: Inhibition of human recombinant 5-LO expressed in Escherichia coli BL21 using arachidonic acid as substrate preincubated for 5 to 10 mins by HPLC analysis.
For experiment [3], the target named is T2, Polyunsaturated fatty acid lipoxygenase ALOX12 (Homo sapiens) (UniProt P18054).
T2 sequence (whole entry): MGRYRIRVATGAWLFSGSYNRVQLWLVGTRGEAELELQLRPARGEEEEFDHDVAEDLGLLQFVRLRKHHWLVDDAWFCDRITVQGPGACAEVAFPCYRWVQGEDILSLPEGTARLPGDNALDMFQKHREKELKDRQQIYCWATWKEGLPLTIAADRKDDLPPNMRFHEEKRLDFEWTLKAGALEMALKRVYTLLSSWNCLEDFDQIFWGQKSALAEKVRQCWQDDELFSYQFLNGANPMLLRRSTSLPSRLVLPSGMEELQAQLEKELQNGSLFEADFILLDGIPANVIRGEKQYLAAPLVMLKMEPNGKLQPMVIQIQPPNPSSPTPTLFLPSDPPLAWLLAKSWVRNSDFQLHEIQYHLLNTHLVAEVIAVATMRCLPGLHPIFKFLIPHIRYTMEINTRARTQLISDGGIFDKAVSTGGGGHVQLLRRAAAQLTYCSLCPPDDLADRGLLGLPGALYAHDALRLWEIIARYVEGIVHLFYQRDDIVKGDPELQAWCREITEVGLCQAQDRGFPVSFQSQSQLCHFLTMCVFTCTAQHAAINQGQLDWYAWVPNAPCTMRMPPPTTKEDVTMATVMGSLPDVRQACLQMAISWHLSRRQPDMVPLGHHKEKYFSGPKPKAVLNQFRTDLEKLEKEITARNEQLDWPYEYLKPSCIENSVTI
Kind of experiment: Inhibition of 12-LO-mediated 12-H(P)ETE production in human polymorphonuclear leukocytes assessed as remaining activity preincubated at 10 uM for 15 mins by HPLC analysis. It is filed as cell-based.

Experiment [4] concerns the target T3, Polyunsaturated fatty acid lipoxygenase ALOX15 (Homo sapiens) (UniProt P16050).
T3 sequence (whole entry): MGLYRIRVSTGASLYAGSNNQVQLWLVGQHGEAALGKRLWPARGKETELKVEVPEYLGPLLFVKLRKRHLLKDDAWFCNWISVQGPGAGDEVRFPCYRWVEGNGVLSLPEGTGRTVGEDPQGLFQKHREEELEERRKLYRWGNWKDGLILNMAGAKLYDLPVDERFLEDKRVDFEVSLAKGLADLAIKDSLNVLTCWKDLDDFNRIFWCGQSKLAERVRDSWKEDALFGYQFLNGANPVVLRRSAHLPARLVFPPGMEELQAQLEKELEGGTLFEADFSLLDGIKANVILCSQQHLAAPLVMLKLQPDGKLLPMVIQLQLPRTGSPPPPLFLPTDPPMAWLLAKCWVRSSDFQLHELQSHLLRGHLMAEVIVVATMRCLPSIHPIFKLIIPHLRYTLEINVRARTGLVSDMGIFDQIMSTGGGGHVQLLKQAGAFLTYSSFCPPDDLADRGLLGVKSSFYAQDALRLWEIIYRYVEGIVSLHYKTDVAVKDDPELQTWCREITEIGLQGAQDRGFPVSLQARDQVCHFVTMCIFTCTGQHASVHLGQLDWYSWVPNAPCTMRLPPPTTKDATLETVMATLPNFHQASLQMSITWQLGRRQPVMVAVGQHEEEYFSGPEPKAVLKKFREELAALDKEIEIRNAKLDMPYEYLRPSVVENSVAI
Briefly: Inhibition of 15-LO-mediated 15-H(P)ETE production in human polymorphonuclear leukocytes assessed as remaining activity preincubated at 10 uM for 15 mins by HPLC analysis. It is filed as cell-based.

The target of experiment [5] is T4, Prostaglandin G/H synthase 1 (Ovis aries) (UniProt P05979).
T4 sequence (whole entry): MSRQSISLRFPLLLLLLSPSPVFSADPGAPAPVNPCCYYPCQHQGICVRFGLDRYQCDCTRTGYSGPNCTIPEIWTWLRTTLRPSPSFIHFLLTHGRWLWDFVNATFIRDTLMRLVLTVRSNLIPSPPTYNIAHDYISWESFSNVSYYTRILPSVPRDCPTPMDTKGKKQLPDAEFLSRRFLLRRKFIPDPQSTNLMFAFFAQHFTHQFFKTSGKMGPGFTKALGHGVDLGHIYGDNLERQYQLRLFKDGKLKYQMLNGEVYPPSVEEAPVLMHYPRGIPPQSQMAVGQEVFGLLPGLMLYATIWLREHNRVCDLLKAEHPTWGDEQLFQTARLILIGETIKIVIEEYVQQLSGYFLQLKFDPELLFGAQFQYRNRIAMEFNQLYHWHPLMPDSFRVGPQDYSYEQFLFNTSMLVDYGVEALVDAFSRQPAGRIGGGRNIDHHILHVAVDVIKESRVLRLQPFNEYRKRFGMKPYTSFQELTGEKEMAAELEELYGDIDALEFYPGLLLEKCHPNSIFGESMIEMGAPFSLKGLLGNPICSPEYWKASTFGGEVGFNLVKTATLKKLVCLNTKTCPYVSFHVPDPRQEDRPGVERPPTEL
Briefly: Inhibition of purified ovine COX1 preincubated for 5 mins by HPLC analysis.

Experiment [6] deals with T5, Prostaglandin G/H synthase 2 (Homo sapiens) (UniProt P35354).
T5 sequence (whole entry): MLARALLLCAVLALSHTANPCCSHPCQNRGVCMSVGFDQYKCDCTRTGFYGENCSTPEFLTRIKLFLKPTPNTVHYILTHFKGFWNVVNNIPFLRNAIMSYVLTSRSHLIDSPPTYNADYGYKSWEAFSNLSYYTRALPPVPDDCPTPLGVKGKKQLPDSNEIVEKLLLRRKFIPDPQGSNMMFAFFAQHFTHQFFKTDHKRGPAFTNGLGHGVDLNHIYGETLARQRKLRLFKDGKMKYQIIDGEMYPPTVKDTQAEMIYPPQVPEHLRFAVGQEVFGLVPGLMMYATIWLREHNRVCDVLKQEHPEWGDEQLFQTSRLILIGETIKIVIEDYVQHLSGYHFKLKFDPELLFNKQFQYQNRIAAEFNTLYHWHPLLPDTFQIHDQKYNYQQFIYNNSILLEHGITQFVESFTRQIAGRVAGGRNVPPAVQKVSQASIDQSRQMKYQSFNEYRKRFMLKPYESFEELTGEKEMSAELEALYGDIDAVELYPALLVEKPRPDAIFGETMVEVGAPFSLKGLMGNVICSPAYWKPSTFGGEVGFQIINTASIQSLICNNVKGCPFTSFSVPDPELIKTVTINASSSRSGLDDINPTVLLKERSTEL
Kind of experiment: Inhibition of human recombinant COX2 preincubated for 5 mins by HPLC analysis.

Experiment [7] concerns the target T6, Polyunsaturated fatty acid lipoxygenase ALOX15 (Homo sapiens, UniProt P16050).
T6 sequence (P16050 whole entry): T3 sequence (whole entry)
Briefly: Inhibition of 15-LO in human polymorphonuclear leukocytes assessed as inhibition of 15-H(P)ETE production from arachidonic acid preincubated for 15 mins by HPLC analysis. In kind it is cell-based.

The source made the active and inactive calls. The rule behind the calls is not given here. Bounds are passed on as bounds.

For the molecule `CCOC(=O)c1c(CSc2ccc(OC)cc2)n(C)c2ccc(O)cc12`, the IC50 (in general, the point on the concentration scale where inhibition reaches its midpoint) was 3100 nM in experiment [1] and 2300 nM in experiment [2]. Besides, the Activity worked out at 92.1% in experiment [3] and 128% in experiment [4].

With `CCOC(=O)c1c(CSc2ccccc2)n(C)c2ccc(O)cc12`, the IC50 worked out at 2400 nM in experiment [1] and 5700 nM in experiment [2]. The Activity in experiment [3] was 92.4%; in experiment [4] it was 130%.

As for `CCOC(=O)c1c(CSc2c(Cl)cccc2Cl)n(C)c2ccc(O)cc12`, the values for the IC50 in experiment [1] and in experiment [2] were 900 nM and 800 nM, respectively. The inhibition result in experiment [5] and in experiment [6] was “inactive” each time. The figures for the Activity in experiment [3] and in experiment [4] were 103% and 136%, respectively.

Turning to `CCOC(=O)c1c(CSc2ccccc2C(F)(F)F)n(C)c2ccc(O)cc12`, the results for the IC50 in experiment [1] and in experiment [2] were 1200 nM and 800 nM, respectively. Further, the results for the Activity in experiment [3] and in experiment [4] were 104% and 126%, respectively.

Regarding `CCOC(=O)c1c(CSc2cc(C)cc(C)c2)n(C)c2ccc(O)cc12`, the half-maximal inhibitory concentration (IC50) was determined as 2700 nM in experiment [1] and 1800 nM in experiment [2]. For the same molecule, the results for the Activity in experiment [3] and in experiment [4] were 107% and 150%, respectively.

`CCOC(=O)c1c(CSc2ccc(OC(F)(F)F)cc2)n(C)c2ccc(O)cc12`: the IC50 in experiment [1] was 2100 nM; in experiment [2] it was 900 nM. The Activity is 94.1% in experiment [3] and 107% in experiment [4].

On to `CCOC(=O)c1c(CSc2ccc(F)cc2F)n(C)c2ccc(O)cc12`, for which the figures for the IC50 in experiment [1] and in experiment [2] were 6800 nM and 3200 nM, respectively. Besides, the Activity worked out at 91.4% in experiment [3] and 102% in experiment [4].

In the case of `N#C/C(=C\c1ccc(O)c(O)c1)C(=O)OC/C=C/c1ccccc1`, the Activity in experiment [3] was 5.6%; in experiment [4], 11.1%.

`CCOC(=O)c1c(CSc2cccc(Cl)c2)n(C)c2ccc(O)cc12`: the half-maximal inhibitory concentration (IC50) in experiment [1] was over 10000 nM; in experiment [2], 3800 nM. Moreover, the Activity worked out at 92.9% in experiment [3] and 114% in experiment [4].

On to `CCOC(=O)c1c(CSc2c(C)cc(C)cc2C)n(C)c2ccc(O)cc12`, for which the IC50 in experiment [1] was 230 nM; in experiment [2], 700 nM; in experiment [7], 8200 nM. Besides, the inhibition entry in experiment [5] and in experiment [6] was “inactive” throughout. Further, the Activity in experiment [3] was found to be 86.5%; in experiment [4], 33%.

As to `CCOC(=O)c1c(CSc2ccc(F)cc2)n(C)c2ccc(O)cc12`, the values for the IC50 in experiment [1] and in experiment [2] were 9100 nM and 5000 nM, respectively. In addition, the values for the Activity in experiment [3] and in experiment [4] were 100% and 120%, respectively.

Consider `CCOC(=O)c1c(CSc2ccccc2OC)n(C)c2ccc(O)cc12`, for which the IC50 in experiment [1] is 5100 nM; in experiment [2] it was 2900 nM. The Activity in experiment [3] turned out to be 108%; in experiment [4], 136%.

For `CCOC(=O)c1c(CSc2c(C)cccc2C)n(C)c2ccc(O)cc12`, the IC50 in experiment [1] amounted to 1200 nM; in experiment [2], 800 nM. Besides, the Activity came to 94.1% in experiment [3] and 125% in experiment [4].

Take `CCOC(=O)c1c(CSc2ccc(C(F)(F)F)cc2)n(C)c2ccc(O)cc12`: the IC50 in experiment [1] is over 10000 nM; in experiment [2] it was 4200 nM. The Activity in experiment [3] came out at 102%; in experiment [4], 114%.

(Values after ChEMBL document CHEMBL3259515, “Further studies on ethyl 5-hydroxy-indole-3-carboxylate scaffold: design, synthesis and evaluation of 2-phenylthiomethyl-indole derivatives as efficient inhibitors of human 5-lipoxygenase” (Eur J Med Chem, 2014).)
